Patent US6872749B2, “Method for supplying bioavailable methionine to a cow” (Adisseo Ireland Limited, priority 1998, dated 2005)

Experiment: Bioavailability of esters of methionine after spot dose to cows (Example 2)
Type: in vivo, cow
Procedure: The bioavailability of the esters was evaluated.
The samples were stored in a freezer.
The procedure of (b1) was repeated using 72 g of methionine ethyl ester hydrochloride, prepared as detailed above
• cyclohexyl methioninate: 122 g • methionine methyl ester hydrochloride: 73 g • sec butyl methioninate: 72 g

Compound	[met] methionine concentration in blood plasma (bovine, in vivo, 0 h)	[met] methionine concentration in blood plasma (bovine, in vivo, 1 h)	[met] methionine concentration in blood plasma (bovine, in vivo, 2 h)	[met] methionine concentration in blood plasma (bovine, in vivo, 3 h)	[met] methionine concentration in blood plasma (bovine, in vivo, 5 h)	[met] methionine concentration in blood plasma (bovine, in vivo, 7 h)	[met] methionine concentration in blood plasma (bovine, in vivo, 28 h)	Bioavailability % (bovine, in vivo, po)	methionine equivalent provided to the cow by rumen absorption (bovine, in vivo)	time after intake within which methionine is provided to the blood stream (bovine, in vivo)	[met] methionine concentration in blood plasma (0 hours after administration, spot dose equivalent to 50 g methionine, 2 cows)	[met] methionine concentration in blood plasma (1 hour after administration, spot dose equivalent to 50 g methionine, 2 cows)	[met] methionine concentration in blood plasma (2 hours after administration, spot dose equivalent to 50 g methionine, 2 cows)	[met] methionine concentration in blood plasma (3 hours after administration, spot dose equivalent to 50 g methionine, 2 cows)	[met] methionine concentration in blood plasma (5 hours after administration, spot dose equivalent to 50 g methionine, 2 cows)	[met] methionine concentration in blood plasma (7 hours after administration, spot dose equivalent to 50 g methionine, 2 cows)	[met] methionine concentration in blood plasma (28 hours after administration, spot dose equivalent to 50 g methionine, 2 cows)	Bioavailability % (AUC method, spot dose equivalent to 50 g methionine)
CSCC[C@H](N)C(=O)OC1CCCCC1 [Cyclohexyl methioninate, cyclohexyl methioninate]	0.29 mg/100 g of blood plasma	2.55 mg/100 g of blood plasma	2.27 mg/100 g of blood plasma	1.88 mg/100 g of blood plasma	1.61 mg/100 g of blood plasma	1.55 mg/100 g of blood plasma	0.38 mg/100 g of blood plasma	35%	–	–	–	–	–	–	–	–	–	–
CCCCCCCCCCCCOC(=O)[C@@H](N)CCSC [Dodecyl methioninate, dodecyl methioninate]	0.33 mg/100 g of blood plasma	0.38 mg/100 g of blood plasma	0.37 mg/100 g of blood plasma	0.37 mg/100 g of blood plasma	0.44 mg/100 g of blood plasma	0.45 mg/100 g of blood plasma	0.28 mg/100 g of blood plasma	3%	–	–	–	–	–	–	–	–	–	–
CCOC(=O)[C@@H](N)CCSC.Cl [Methionine ethyl ester hydrochloride, methionine ethyl ester hydrochloride]	0.36 mg/100 g of blood plasma	2.78 mg/100 g of blood plasma	2.60 mg/100 g of blood plasma	2.30 mg/100 g of blood plasma	2.00 mg/100 g of blood plasma	1.43 mg/100 g of blood plasma	0.38 mg/100 g of blood plasma	30%	–	–	–	–	–	–	–	–	–	–
COC(=O)[C@@H](N)CCSC.Cl [Methionine methyl ester hydrochloride, methionine methyl ester hydrochloride]	0.41 mg/100 g of blood plasma	1.96 mg/100 g of blood plasma	1.43 mg/100 g of blood plasma	1.27 mg/100 g of blood plasma	1.18 mg/100 g of blood plasma	1.22 mg/100 g of blood plasma	0.43 mg/100 g of blood plasma	25%	–	–	–	–	–	–	–	–	–	–
COC(=O)[C@@H](N)CCSC [Methyl methioninate, methyl methioninate]	0.34 mg/100 g of blood plasma	4.08 mg/100 g of blood plasma	3.87 mg/100 g of blood plasma	3.25 mg/100 g of blood plasma	2.57 mg/100 g of blood plasma	2.51 mg/100 g of blood plasma	0.41 mg/100 g of blood plasma	51%	–	–	–	–	–	–	–	–	–	–
CSCC[C@H](N)C(=O)OC(C)(C)C [Tertiary butyl methioninate, tertiary butyl methioninate]	0.37 mg/100 g of blood plasma	4.84 mg/100 g of blood plasma	4.87 mg/100 g of blood plasma	4.98 mg/100 g of blood plasma	4.39 mg/100 g of blood plasma	4.19 mg/100 g of blood plasma	0.76 mg/100 g of blood plasma	80%	approximately 80%	less than one	–	–	–	–	–	–	–	–
CCOC(=O)[C@H](CCSC)NC(C)=O [ethyl N-acetyl methioninate]	–	–	–	–	–	–	–	–	–	–	0.26 mg/100 g of blood plasma	1.84 mg/100 g of blood plasma	1.97 mg/100 g of blood plasma	1.53 mg/100 g of blood plasma	1.12 mg/100 g of blood plasma	0.86 mg/100 g of blood plasma	0.36 mg/100 g of blood plasma	20%
CCCCOC(=O)[C@@H](N)CCSC [n-butyl methioninate]	0.32 mg/100 g of blood plasma	1.10 mg/100 g of blood plasma	0.74 mg/100 g of blood plasma	0.63 mg/100 g of blood plasma	0.62 mg/100 g of blood plasma	0.61 mg/100 g of blood plasma	0.27 mg/100 g of blood plasma	8%	–	–	–	–	–	–	–	–	–	–
CCCCCCOC(=O)[C@@H](N)CCSC [n-hexyl methioninate]	0.31 mg/100 g of blood plasma	1.22 mg/100 g of blood plasma	0.92 mg/100 g of blood plasma	0.94 mg/100 g of blood plasma	1.06 mg/100 g of blood plasma	1.07 mg/100 g of blood plasma	0.35 mg/100 g of blood plasma	17%	–	–	–	–	–	–	–	–	–	–
CCCCCCCCCCCCCCCCCCOC(=O)[C@@H](N)CCSC [n-octadecyl methioninate]	0.37 mg/100 g of blood plasma	0.37 mg/100 g of blood plasma	0.37 mg/100 g of blood plasma	0.34 mg/100 g of blood plasma	0.37 mg/100 g of blood plasma	0.31 mg/100 g of blood plasma	0.38 mg/100 g of blood plasma	1%	–	–	–	–	–	–	–	–	–	–
CCCOC(=O)[C@@H](N)CCSC [n-propyl methioninate]	0.32 mg/100 g of blood plasma	2.29 mg/100 g of blood plasma	1.70 mg/100 g of blood plasma	1.55 mg/100 g of blood plasma	1.27 mg/100 g of blood plasma	1.14 mg/100 g of blood plasma	0.32 mg/100 g of blood plasma	22%	–	–	–	–	–	–	–	–	–	–
CCC(C)OC(=O)[C@@H](N)CCSC (some centres unmarked) [sec butyl methioninate]	0.35 mg/100 g of blood plasma	2.75 mg/100 g of blood plasma	2.49 mg/100 g of blood plasma	2.39 mg/100 g of blood plasma	1.75 mg/100 g of blood plasma	1.56 mg/100 g of blood plasma	0.44 mg/100 g of blood plasma	28%	–	–	–	–	–	–	–	–	–	–
